In patent publication US10076576B2, “Minimally toxic prodrugs” (priority 2012, dated 2018):
Values joined by “and” are separate entries in the source; they are usually repeats but may differ in a detail not shown here. Identical values can stand only once. Like-named read-outs stand apart in the source and are kept apart here.

Legend:
[1] = tested on: mouse embryonic fibroblasts (MEF); assay: In vitro cytotoxicity on control fibroblasts (neutral red uptake); type: cell-based; conditions: 48 h
Description: (§1) FIG. 5. In vitro cellular toxicity of PhAc-ALGP-Dox and Doxorubicin on Cor.At® cells (mouse embryonic stem cell derived cardiomyocytes). As non-specific control, the test was also performed on inactivated mouse embryonic fibroblasts (MEF). Cells were cultured for 48 h in the presence of drugs and a neutral red uptake test was performed to determine cell viability. Results represent the cytotoxicity curves. The IC50 values were calculated from the cytotoxicity curves using the Prism GraphPad software 5.0.
(§2) The in vitro cardiotoxicity test was carried out in a relevant and predictive in vitro model for cardiac safety screening in early lead optimization using mouse embryonic stem cell derived cardiomyocytes (Cor.At®, Axiogenesis (Germany)). Cor.At® cardiomyocytes provide a standardized, homogenous and reproducible cell system for the in vitro classification of a compound's cardio-cytotoxic potential. After incubation with test compounds, the neutral red uptake test was used to determine effects which directly affect the viability and integrity of cardiac cells when compared to a non-specific reference cell type, e.g. mouse fibroblasts (MEF).

[2] = tested on: LoVo colon carcinoma human xenografts; assay: Efficacy after repeated ip injections (2Q1D5), LoVo xenograft; type: in vivo, NMRI nude mice; conditions: for TGD: 190 to 1,000 mm^3
Description: FIG. 9. Efficacy study of PhAc-ALGP-Dox in comparison with free Doxorubicin in NMRI nude mice bearing LoVo colon carcinoma human xenografts. Drugs or controls were administered by the i.p. route twice a day for five consecutive days (arrows). The mice receiving a constant volume (10 μL/g) of either saline (-●-) or of the different dosing solutions: PhAc-ALGP-Dox 25 μmol/kg (*), 35 μmol/kg (◯) and 50 μmol/kg (+); Dox 0.5 μmol/kg (▪), 1 μmol/kg (▴) and 2 μmol/kg (×).
(§3) The efficacy of PhAc-ALGP-Dox was assessed using athymic mice (nude/nude NMRI) carrying ectopic xenograft of human LoVo colon carcinoma or of MX-1 mammary carcinoma in comparison with free Doxorubicin. Tumors were established by a subcutaneous implantation of cells (10^7 cells) in the right flank of 6 weeks old female NMRI nude mice (Harlan). Treatments were administered when the tumors reached a size of 150-200 mm^3 (measured using a caliper and calculated with the following formula: […]). Animals were randomly assigned to groups of 4 to-6 animals. […] Compounds were delivered by bolus intraperitoneal injection (ip) at 10 μl/g. During the course of the experiment, clinical signs, body weight and tumor volume were controlled twice a week. Results are presented as the evolution of mean tumor volume as a function of time. Optimal T/C (ratio of mean tumor volume of treated versus control mice) values and TGD (tumor growth delay in reaching 1000 mm^3) were used as a measure of treatment efficacy. […] A statistical analysis was performed at day 22 using the Mann Whitney t test of the Graph Pad Prism 5.0 software.

[3] = tested on: LS174T colon carcinoma human xenografts; assay: Efficacy after repeated iv bolus, LS174T xenograft; conditions: for TGI [% (day)]: day 28
Description: FIG. 2. Efficacy study of PhAc-ALGP-Dox in comparison with free Doxorubicin in NMRI nude mice bearing LS174T colon carcinoma human xenografts. Drugs or controls were administered by the i.v. route on day 0 and day 7. The mice receiving a constant volume (10 μL/g) of either saline (-●-;-◯-) or of the different dosing solutions: PhAc-ALGP-Dox 140 μmolKg (-▴-) and 160 μmol/kg (-×-); Dox 15 μmol/kg (-♦-). Results represent the mean body weight and tumor volume evolution±SEM (n=4).
The anti-tumor activity of doxorubicin and PhAc-ALGP-Dox was tested in models of athymic mice (nude/nude NMRI) carrying ectopic xenografts of human LS-174T colon carcinoma or MX-1 mammary carcinoma.
LS174T and MX-1 tumors were established by a subcutaneous implantation of cells (3×10^6 and 10^7 cells injected respectively) in the right flank of 6 weeks old female NMRI nude mice (Harlan). […] The day of the first injection animals were randomly assigned to groups of 4 animals. […] Compounds were delivered by bolus intravenous injection (i.v.) in the lateral tail vein at 10 μl/g. During the course of the experiment, clinical signs, body weight and tumor volume were controlled twice a week. Results are presented as the evolution of mean tumor volume as a function of time. Optimal T/C (ratio of mean tumor volume of treated versus control mice) values were used as a measure of treatment efficacy.

[4] = Description: FIG. 7. Toxicity study of PhAc-ALGP-Dox after single and multiple intraperitoneal (ip) injections in OF-1 mice. Animals were treated with PhAc-ALGP-Dox with different treatment schedules: at 56 μmol/kg 5× (Q1D5 -*-); at 28 μmol/kg 10× (2Q1D5 -▪-); at 560 μmol/kg 1× (-□-); at 112 μmol/kg 5× (Q1D5 -▴-); at 56 μmol/kg 10× (2Q1D5 -×-).
PhAc-ALGP-Dox was dissolved in saline and administered by single or multiple intraperitoneal (ip) injections […] of OF-1 mice (10 μl/g). PhAc-ALGP-Dox was administered at similar cumulative doses of 280 and 560 μmol/kg following different injections schedules: single ip injection; 5 consecutive daily ip injections at 56 and 112 μmol/kg or twice a day for five consecutive days at the doses of 28 and 56 μmol/kg. The in vivo toxicity was evaluated by monitoring the body weight.

[5] = tested on: LoVo colon carcinoma human xenografts; assay: Efficacy, similar study, ip 2Q1D5×2W (Table 9)
Description: as §3

[6] = tested on: Cor.At® cells (mouse embryonic stem cell derived cardiomyocytes); assay: In vitro cytotoxicity on Cor.At cardiomyocytes (neutral red uptake); type: cell-based; conditions: 48 h
Description: as §1, §2

in vivo = conditions: female, OF-1, mouse, ip, 92 umol/kg
Description: Time evolution of blood concentration of PhAc-ALGP-Dox and its metabolites (A) or of Doxorubicin (B) after intraperitoneal injection to OF-1 female wild type mice at the equimolar dose of 92 μmol/kg. Results represent the mean concentration±SD (n=3).
Pharmacokinetic tissue distribution studies were performed using OF-1 mice. Doxorubicin and PhAc-ALGP-Dox were dissolved in saline at the dose of 9.2 mM and administered to mice by intraperitoneal route (10 μL/g, 6 mice per group). At different time points after drug administration (5 min, 30 min, 1 h, 4 h, and 24 h), blood samples were collected from the lateral tail vein of three mice using EDTA-coated microtubes (Starsted). After 24 h, 3 mice per group were sacrificed by cervical dislocation and hearts were collected. They were incised and rinsed carefully in phosphate buffer saline (to eliminate blood in the cardiac cavities), dried on paper and frozen in liquid nitrogen. They were stored until analysis. The hearts were homogenized with an Ultraturrax homogenizer in 1.5 mL water. The protein concentration was measured using the microBCA protein assay (Pierce). The drug tissue quantification was made by HPLC after extraction: 150 μL of acetonitrile was added to the 50 μL samples. Samples were vortexed and centrifuged for 10 min at 13 000 rpm at room temperature. Supernatant was collected. Samples were buffered by addition of 200 mM formiate buffer pH 4.5 (1 V sample supernatant+3 V buffer) before HPLC analysis (fluo detection ex=235 nm em=560 nm).

[7] = tested on: MX-1 mammary carcinoma human xenografts; assay: Efficacy after repeated ip injections (2Q1D5×2W), MX-1 xenograft; type: in vivo, NMRI nude mice; conditions: for TGI [% (day)]: day 35; for body weight loss (in words): Doxorubicin 1 μmol/kg (MTD), PhAc-ALGP-Dox 50 μmol/kg, ip 2Q1D5×2W
Description: FIG. 10. […] Drugs or controls were administered by the i.p. route twice a day for five consecutive days (arrows). Treatment was repeated with 72 hours interval between two cycles.

COc1cccc2c1C(=O)c1c(O)c3c(c(O)c1C2=O)CC(O)(C(=O)CO)CC3OC1CC(NC(=O)C2CCCN2C(=O)CNC(=O)C(CC(C)C)NC(=O)C(C)NC(=O)CP(=O)(O)O)C(O)C(C)O1 (centres unmarked) [PhAc-ALGP-Dox, PhAc-ALGP-doxorubicin]
IC50 on MEF ([1]; up to 20 μg/ml): no IC50 is reached | TGD ([2]; 25 μmol/kg ip 2Q1D5): 5 days | TGI [% (day)] ([2]; 25 μmol/kg ip 2Q1D5, day 22): 32 (22) % | TGD ([2]; 35 μmol/kg ip 2Q1D5): 13 days | TGI [% (day)] ([2]; 35 μmol/kg ip 2Q1D5, day 22): 60 (22) % | TGD ([2]; 50 μmol/kg ip 2Q1D5): 17 days | TGI [% (day)] ([2]; 50 μmol/kg ip 2Q1D5, day 22): 65% and 65 (22) % | body weight loss (maximum) ([3]; 140 μmol/kg and 160 μmol/kg iv, twice): ≤ 10% | TGI [% (day)] ([3]; 140 μmol/kg iv day 0 and 7): 79 (28) % | TGI [% (day)] ([3]; 160 μmol/kg iv day 0 and 7): 81 (28) % | body weight loss (in words) ([4]; 56 μmol/kg, 10 ip injections (twice a day for five consecutive days)): No body weight loss | maximum body weight loss ([4]; 112 μmol/kg, five consecutive daily ip injections, day 11): 22.5% | toxicity (in words) ([4]; 560 μmol/kg single ip injection): very toxic | body weight lost ([4]; 560 μmol/kg single ip injection, in one week): 25% | body weight loss (in words) ([4]; cumulative dose 280 μmol/kg ip, whatever the injection schedule): no body weight loss | times less toxic than doxorubicin ([4]; ip twice a day for five consecutive days): about 15 times | TGD ([5]; 25 μmol/kg ip 2Q1D5×2W): 9 days | TGI [% (day)] ([5]; 25 μmol/kg ip 2Q1D5×2W, day 29): 54(29), % | TGD ([5]; 35 μmol/kg ip 2Q1D5×2W): 9 days | TGI [% (day)] ([5]; 35 μmol/kg ip 2Q1D5×2W, day 29): 53(29), % | TGD ([5]; 50 μmol/kg ip 2Q1D5×2W): 22 days | maximum body weight loss ([5]; 50 μmol/kg ip 2Q1D5×2W, day 9): 13% | TGI [% (day)] ([5]; 50 μmol/kg ip 2Q1D5×2W, day 29): 73% and 73(29), % | toxic effect (in words) ([6]; all concentrations lower than 20 μg/ml): did not show any toxic effect | AUC (in vivo): 44.2 µM·h | TGI [% (day)] ([7]; 50 μmol/kg ip 2Q1D5×2W): 76% and 76 (35), n = 4% | body weight loss (in words) [7]: No significant body weight loss

COc1cccc2c1C(=O)c1c(O)c3c(c(O)c1C2=O)C[C@@](O)(C(=O)CO)C[C@@H]3O[C@H]1C[C@H](N)[C@H](O)[C@H](C)O1 [Doxorubicin, reference compound]
viability of MEF ([1]; 0.2 μg/ml): 89% | toxic effect on MEF (in words) ([1]; 20 μg/ml and 2 μg/ml): severe toxic effect | TGD ([2]; 0.5 μmol/kg ip 2Q1D5): 1 days | TGI [% (day)] ([2]; 1 μmol/kg ip 2Q1D5): no antitumor activity and no | TGD ([2]; 1 μmol/kg ip 2Q1D5): 0 days | TGD ([2]; 2 μmol/kg ip 2Q1D5): 6 days | TGI [% (day)] ([2]; 2 μmol/kg ip 2Q1D5, day 22, listed as Dox): 45% | TGI [% (day)] ([3]; 15 μmol/kg iv day 0 and 7): 55 (28) % | maximum tolerated dose ([4]; OF-1, mouse, in vivo, ip): 3 µmol/kg | TGD ([5]; 1 μmol/kg ip 2Q1D5×2W): 5 days | mortality ([5]; 1 μmol/kg ip 2Q1D5×2W): one dead mouse was found at day 29 | TGI [% (day)] ([5]; 1 μmol/kg ip 2Q1D5×2W, day 29): 44(29), % | TGD ([5]; 1.5 μmol/kg ip 2Q1D5×2W): 9 days | TGI [% (day)] ([5]; 1.5 μmol/kg ip 2Q1D5×2W, day 29, n = 1): 65(29), % | viability of Cor.At cardiomyocytes ([6]; 0.2 μg/ml): 67% | toxic effect on Cor.At cardiomyocytes (in words) ([6]; 20 μg/ml and 2 μg/ml): severe toxic effect | AUC (in vivo): 70.3 µM·h | TGI [% (day)] ([7]; 1 μmol/kg ip 2Q1D5×2W): 44% and 44 (35), n = 3% | toxicity (in words) ([7]; 1.5 μmol/Kg ip 2Q1D5×2W): very toxic | body weight loss (in words) [7]: No significant body weight loss
